Data published in patent US8778921B2, “Ansamycin hydroquinone compositions” (Infinity Pharmaceuticals, Inc., priority 2008, dated 2014).
Structures can show the parent of a compound that is named as a salt. Each block holds one compound with its values, some of them ahead of it.

Assay: Stability at 40° C. and 75% relative humidity (percent purity by HPLC)
Format: physicochemical
Details: 40° C. and 75% RH; for Percent Purity of 17-AAG T = 0 Days / Percent Purity of 17-AAG T = 21 Days: Table 8; for Percent Purity of 17-BAG T = 0 Days / Percent Purity of 17-BAG T = 21 Days: Table 4; for Percent Purity of 17-FEAG T = 0 Days / Percent Purity of 17-FEAG T = 21 Days: Table 6
Experimental: As used herein, a “stable composition” refers a composition comprising a sulfur-containing compound and a baseline amount of the compound of formula (I) (e.g., such as percent purity as measured by HPLC) such that, after being subjected to standard stability conditions (e.g., 40° C. and 75% relative humidity) for a specified period of time (e.g., 1 day, 2 days, 3 days, 4 days, 5 days, 7 days, 14 days, 21 days, or 30 days), at least about 80% of the original amount of the compound of formula (I) remains in the composition (i.e., has not oxidized to a compound of formula (II) or degraded to other by-products). In certain embodiments, at least about 85%, at least about 90%, at least about 91%, at least about 92%, at least about 93%, at least about 94%, or at least about 95% of the original amount of the hydroquinone compound of formula (I) remains in the composition for a specified period of time (e.g., 1 day, 2 days, 3 days, 4 days, 5 days, 7 days, 14 days, 21 days, or 30 days).
The stability data for 17-AG-HQ of Example 2 when kept at 40° C. and 75% relative humidity (RH) is depicted in FIG. 8 (see Table 2 for tabulated stability data). It was observed that 17-AG-HQ of Example 2 completely oxidizes to its quinone form in two weeks at 40° C. and […] as determined by HPLC.

[1] = Table 14, formulations of 17-AG-HQ of Example 3
[2] = Table 15, NaHSO3/mineral oil formulation of 17-AG-HQ of Example 3

Structure (SMILES): C=CCNc1c(O)cc2c(O)c1C[C@@H](C)C[C@H](OC)[C@H](O)[C@@H](C)/C=C(\C)[C@H](OC(N)=O)[C@@H](OC)/C=C\C=C(/C)C(=O)N2 [17-AAG-HQ of Example 11A, 17-allylamino-geldanamycin hydroquinone]
stability over a period of time compared to 17-AAG-HQ of Example 11B: greater stability
Percent Purity of 17-AAG T = 0 Days (T = 0 Days): 99%
Percent Purity of 17-AAG T = 21 Days (T = 21 Days): 97%

Structure (SMILES): C=CCNc1c(O)cc2c(O)c1C[C@@H](C)C[C@H](OC)[C@H](O)[C@@H](C)/C=C(\C)[C@H](OC(N)=O)[C@@H](OC)/C=C\C=C(/C)C(=O)N2 [17-AAG-HQ of Example 11B, 17-allylamino-geldanamycin hydroquinone]
Percent Purity of 17-AAG T = 0 Days (T = 0 Days): 97%
Percent Purity of 17-AAG T = 21 Days (T = 21 Days): 2%
Percent Purity of 17-AAG-HQ T = 0 Days (Table 19, Example 11B Formulations, T = 0 Days): 97%
Percent Purity of 17-AAG-HQ T = 21 Days (Table 19, Example 11B Formulations, T = 21 Days): 2%

Structure (SMILES): CO[C@H]1/C=C\C=C(/C)C(=O)Nc2cc(O)c(N)c(c2O)C[C@@H](C)C[C@H](OC)[C@H](O)[C@@H](C)/C=C(\C)[C@@H]1OC(N)=O [17-AG-HQ of Example 3, 17-amino-geldanamycin hydroquinone]
stability over a period of time compared to 17-AG-HQ of Example 2: greater stability
Percent Purity of 17-AG-HQ T = 0 Days (Table 2, T = 0 Days): 97%
Percent Purity of 17-AG-HQ T = 2 Days (Table 2, T = 2 Days): 93%
Percent Purity of 17-AG-HQ T = 5 Days (Table 2): 91%
Percent Purity of 17-AG-HQ T = 14 Days (Table 2): 87%
Percent Purity of 17-AG-HQ T = 21 Days (Table 2, T = 21 Days): 81%
Percent Purity of 17-AG-HQ T = 30 Days (Table 2): 79%
Percent Purity of 17-AG-HQ T = 0 Days (Table 14, formulations of 17-AG-HQ of Example 3, T = 0 Days): 97%
Percent Purity of 17-AG-HQ T = 5 Days [1]: 91%
Percent Purity of 17-AG-HQ T = 14 Days [1]: 87%
Percent Purity of 17-AG-HQ T = 21 Days (Table 14, formulations of 17-AG-HQ of Example 3, T = 21 Days): 81%
Percent Purity of 17-AG-HQ T = 0 Days (Table 15, NaHSO3/mineral oil formulation of 17-AG-HQ of Example 3, T = 0 Days): 97%
Percent Purity of 17-AG-HQ T = 5 Days [2]: 91%
Percent Purity of 17-AG-HQ T = 14 Days [2]: 87%
Percent Purity of 17-AG-HQ T = 21 Days (Table 15, NaHSO3/mineral oil formulation of 17-AG-HQ of Example 3, T = 21 Days): 81%

Structure (SMILES): CO[C@H]1/C=C\C=C(/C)C(=O)Nc2cc(O)c(N)c(c2O)C[C@@H](C)C[C@H](OC)[C@H](O)[C@@H](C)/C=C(\C)[C@@H]1OC(N)=O [17-AG-HQ of Example 4, 17-amino-geldanamycin hydroquinone]
stability over a period of time compared to Examples 2 and 3: greater stability
Percent Purity of 17-AG-HQ T = 0 Days (Table 2, T = 0 Days): 99%
Percent Purity of 17-AG-HQ T = 30 Days (Table 2): 97%

Structure (SMILES): CO[C@H]1/C=C\C=C(/C)C(=O)Nc2cc(O)c(N)c(c2O)C[C@@H](C)C[C@H](OC)[C@H](O)[C@@H](C)/C=C(\C)[C@@H]1OC(N)=O [17-AG-HQ of Example 5, 17-amino-geldanamycin hydroquinone]
stability over a period of time compared to Examples 2, 3 and 4: greatest stability
Percent Purity of 17-AG-HQ T = 0 Days (Table 2, T = 0 Days): 99%
Percent Purity of 17-AG-HQ T = 30 Days (Table 2): 98%

Structure (SMILES): CO[C@H]1/C=C\C=C(/C)C(=O)Nc2cc(O)c(N)c(c2O)C[C@@H](C)C[C@H](OC)[C@H](O)[C@@H](C)/C=C(\C)[C@@H]1OC(N)=O [17-AG-HQ of Example 6A, 17-amino-geldanamycin hydroquinone]
stability over a period of time compared to 17-AG-HQ of Example 6B: greater stability
Percent Purity of 17-AG-HQ T = 0 Days (Table 2, T = 0 Days): 97%
Percent Purity of 17-AG-HQ T = 21 Days (Table 2, T = 21 Days): 83%

Structure (SMILES): CO[C@H]1/C=C\C=C(/C)C(=O)Nc2cc(O)c(N)c(c2O)C[C@@H](C)C[C@H](OC)[C@H](O)[C@@H](C)/C=C(\C)[C@@H]1OC(N)=O [17-AG-HQ of Example 6B, 17-amino-geldanamycin hydroquinone]
time in which the hydroquinone completely oxidizes to its quinone form (determined by HPLC): 3 weeks
Percent Purity of 17-AG-HQ T = 0 Days (Table 2, T = 0 Days): 97%
Percent Purity of 17-AG-HQ T = 21 Days (Table 2, T = 21 Days): 13%
Percent Purity of 17-AG-HQ T = 0 Days (Table 16, Example 6B Formulations, T = 0 Days): 97%
Percent Purity of 17-AG-HQ T = 21 Days (Table 16, Example 6B Formulations, T = 21 Days): 13%

Structure (SMILES): CO[C@H]1/C=C\C=C(/C)C(=O)Nc2cc(O)c(N)c(c2O)C[C@@H](C)C[C@H](OC)[C@H](O)[C@@H](C)/C=C(\C)[C@@H]1OC(N)=O [17-AG-HQ-HCl salt, 17-amino geldanamycin hydroquinone HCl Salt]
Percent Purity of 17-AG-HQ T = 0 Days (Table 2, T = 0 Days): 99%
Percent Purity of 17-AG-HQ T = 14 Days (Table 2): 88%
Percent Purity of 17-AG-HQ T = 30 Days (Table 2): 74%

stability over a period of time compared to 17-BAG-HQ of Example 8B: greater stability
Percent Purity of 17-BAG T = 0 Days (T = 0 Days): 98%
Percent Purity of 17-BAG T = 21 Days (T = 21 Days): 96%
Structure (SMILES): CO[C@H]1/C=C\C=C(/C)C(=O)Nc2cc(O)c(NCc3ccccc3)c(c2O)C[C@@H](C)C[C@H](OC)[C@H](O)[C@@H](C)/C=C(\C)[C@@H]1OC(N)=O [17-BAG-HQ of Example 8A, 17-benzylamino-geldanamycin hydroquinone]

Percent Purity of 17-BAG T = 0 Days (T = 0 Days): 98%
Percent Purity of 17-BAG T = 21 Days (T = 21 Days): 11%
Percent Purity of 17-BAG-HQ T = 0 Days (Table 17, Example 8B Formulations, T = 0 Days): 98%
Percent Purity of 17-BAG-HQ T = 21 Days (Table 17, Example 8B Formulations, T = 21 Days): 11%
Structure (SMILES): CO[C@H]1/C=C\C=C(/C)C(=O)Nc2cc(O)c(NCc3ccccc3)c(c2O)C[C@@H](C)C[C@H](OC)[C@H](O)[C@@H](C)/C=C(\C)[C@@H]1OC(N)=O [17-BAG-HQ of Example 8B, 17-benzylamino-geldanamycin hydroquinone]

stability over a period of time compared to 17-FEAG-HQ of Example 10B: greater stability
Percent Purity of 17-FEAG T = 0 Days (T = 0 Days): 99%
Percent Purity of 17-FEAG T = 21 Days (T = 21 Days): 96%
Structure (SMILES): CO[C@H]1/C=C\C=C(/C)C(=O)Nc2cc(O)c(NCCF)c(c2O)C[C@@H](C)C[C@H](OC)[C@H](O)[C@@H](C)/C=C(\C)[C@@H]1OC(N)=O [17-FEAG-HQ of Example 10A, 17-(2-fluoroethylamino)-geldanamycin hydroquinone]

Percent Purity of 17-FEAG T = 0 Days (T = 0 Days): 97%
Percent Purity of 17-FEAG T = 21 Days (T = 21 Days): 0%
Percent Purity of 17-FEAG-HQ T = 0 Days (Table 18, Example 10B Formulations, T = 0 Days): 97%
Percent Purity of 17-FEAG-HQ T = 21 Days (Table 18, Example 10B Formulations, T = 21 Days): 0%
Structure (SMILES): CO[C@H]1/C=C\C=C(/C)C(=O)Nc2cc(O)c(NCCF)c(c2O)C[C@@H](C)C[C@H](OC)[C@H](O)[C@@H](C)/C=C(\C)[C@@H]1OC(N)=O [17-FEAG-HQ of Example 10B, 17-(2-fluoroethylamino)-geldanamycin hydroquinone]
